# Laboratory results: patent US11565022B2, “Therapy for post-traumatic osteoarthritis” (University of Iowa Research Foundation, priority 2015, dated 2023)
# System: complex I of the electron transport chain in chondrocytes
# Test: complex I activity in the presence or absence of amobarbital (FIG. 4)
# Format: biochemical
compound,measurement,value
CCC1(CCC(C)C)C(=O)NC(=O)NC1=O [amobarbital],biochemical activity of complex I of the electron transport chain,directly inhibits
